Measured values from PubChem BioAssay AID743132 (The Scripps Research Institute Molecular Screening Center, 2013).
pIC50: −log10 of the molar value. Calls of active or inactive are those of the source.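 Rule for the calls: active = compounds blocking probe labeling of mouse brain LYPLA1 and LYPLA2 with IC50 at most 1000 nM; inactive = IC50 above 1000 nM.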

Key:
Assay in all cases: mouse brain serine hydrolase inhibitor potency by ABPP – cell lysate, mouse brain membrane proteome, fluorescence gel, selectivity assay for LYPLA1/LYPLA2 inhibitor project, late-stage follow-up (AID 743132)
[1] = molecular target: Acyl-protein thioesterase 1 (Mus musculus) (UniProt P97823); conditions: gel-based ABPP FP-Rh fluorescence, LYPLA1/2
[2] = molecular target: Monoacylglycerol lipase ABHD6 (Mus musculus) (UniProt Q8R2Y0); conditions: gel-based ABPP FP-Rh fluorescence
FAAH = conditions: gel-based ABPP FP-Rh fluorescence

Sequence of Acyl-protein thioesterase 1 (Mus musculus) (P97823 whole entry, looked up): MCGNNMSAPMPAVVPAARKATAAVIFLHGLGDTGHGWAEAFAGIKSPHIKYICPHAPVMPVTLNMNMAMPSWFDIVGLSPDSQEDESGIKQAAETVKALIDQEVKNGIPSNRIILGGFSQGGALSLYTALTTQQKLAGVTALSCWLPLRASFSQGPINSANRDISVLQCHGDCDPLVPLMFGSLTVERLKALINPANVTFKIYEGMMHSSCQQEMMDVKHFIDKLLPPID
Sequence of Monoacylglycerol lipase ABHD6 (Mus musculus) (Q8R2Y0 whole entry, looked up): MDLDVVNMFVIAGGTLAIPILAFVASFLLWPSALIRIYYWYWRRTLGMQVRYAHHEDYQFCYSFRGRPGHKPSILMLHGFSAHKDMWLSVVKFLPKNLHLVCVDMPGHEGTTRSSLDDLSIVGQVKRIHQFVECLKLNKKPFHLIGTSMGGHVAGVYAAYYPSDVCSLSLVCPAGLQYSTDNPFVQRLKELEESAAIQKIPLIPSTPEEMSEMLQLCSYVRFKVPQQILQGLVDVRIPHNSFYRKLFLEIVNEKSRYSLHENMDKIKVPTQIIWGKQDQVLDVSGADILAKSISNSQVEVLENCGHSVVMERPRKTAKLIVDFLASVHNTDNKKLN

## O=C(ON1C(=O)C2CN(C(=O)N3CCOCC3)CCN2C1=O)N1CCC(CCc2ccc(Cl)cc2)CC1 (stereo not drawn)
[1]
  pIC50: 6.81
[2]
  pIC50: 8.50
FAAH
  IC50: inactive
